Experimental data taken from publication PMC12656219, “Cytotoxic Effects Induced by Combined Exposure of the Patulin, Ochratoxin A, and Acetamiprid to HK-2 and SK-N-SH Cell Lines” (Toxins, 2025).
Where two headings read alike, the source gives them in different places.

Experiments:
[1] = system: HK-2 cells; experiment: CCK-8 cell viability, individual and combined exposure (CI/DRI analysis), HK-2 cells; assay type: cell-based, human; conditions: for DRI (dose reduction index): in PAT+OTA+ACM group, from low to high doses; for IC50: Homo sapiens
Procedure: (§1) The cytotoxicity of individual contaminations was evaluated using dose–response curves, from which half-maximal inhibitory concentration (IC50) values were calculated. Contaminant concentration and exposure duration were identified as the primary determinants influencing cytotoxic responses. Concentrations employed in the binary and ternary combination assays were selected based on IC50 values obtained from individual treatments in HK-2 and SK-N-SH cell lines.
(§2) Due to the high binding affinity of OTA for serum proteins, all treatments were conducted in medium supplemented with 2% FBS to minimize potential interference with toxicological outcomes. For cytotoxicity evaluation, 100 μL of cell suspension (8 × 10^3 cells/well) was seeded into 96-well plates. Upon reaching approximately 80% confluence, the culture medium was replaced with fresh medium containing varying concentrations of PAT, OTA, ACM, or their combinations. Cells were then incubated for 24 or 48 h, after which cell viability was assessed. Concentrations used for individual mycotoxin exposures are provided in Table S1, while those for binary and ternary mixture exposures are listed in Table S2.
(§3) Cells were diluted to a density of 8 × 10^3 cells/well and seeded in 96-well culture plates. After 24 h incubation, all cells were exposed to various concentrations of individual or combined contaminants and allowed to grow in an incubator for 24 h and 48 h, respectively. The cytotoxicity of the two different cell lines was determined using a CCK-8 kit according to the manufacturer’s instructions. After treatment, 10 μL CCK-8 solution was added to each well (10% culture volume) and incubated for 2 h at 37 °C. Absorbance values (A) were measured at 450 nm using a microplate reader (Thermo Fisher Scientific, Waltham, MA, USA). All treatments were performed in six replicates, and cell activity was calculated as follows: Cell Viability(%)=Aexperiment −A(blank)/Acontrol−A(blank)× 100
(§4) The dose–effect relationship for PAT, OTA, and ACM was calculated using the […] proposed by Chou and Talalay. fa/fu=D/Dm^m
(§5) D was the concentration of the contamination, fa was the cell proliferation inhibition rate, and fu was the unaffected fraction (fu = 1 − fa). Dm was the median effect dose for the 50% inhibition of cell proliferation. m was the coefficient indicating the shape of the dose–effect relationship (m = 1, m > 1, and m < 1 each indicated hyperbolic, sigmoidal, and flat sigmoidal dose–effect curves). The method employed the Dm parameter to measure the cytotoxicity of individual contamination.
(§6) When the composition of contaminations extended to binary or ternary, the interactions of multiple contaminations were assayed by means of combination index model (CI) based on the median effect principle, as the CI values calculated according to a generic formula: nCIx=∑j=1n(D)j/(Dx)j
(§7) ^n(CI)x referred to n kind of contaminant combined cell inhibition rate for x% of composite index, (D)j was referred to the joint action of n type of toxin to a total dose of x% cell inhibition rate, and (Dx)j referred to the combination of each contamination effect itself when dose of x% cell inhibition rate. Overall, the types of combined effects represented by CI = 0.9–1.1, CI < 0.9, and CI > 1.1 were additive, synergistic, and antagonistic, respectively.
(§8) In addition, the impact of contaminants on the combined effects was assessed using the dose reduction index (DRI). DRI indicated a multiplicative reduction in the dose required to produce the same effect when the contaminant was mixed compared to when used alone. […] The DRI was calculated as follows: n(CI)x=∑j=1n(D)j/(Dm)j=∑j=1n1/(DRI)j or (DRI)j=(D)j/(Dm)j
(§9) The IC50 values of the three different contaminations exposed to the two cell lines was calculated by GraphPad Prism 9.4.0 software. […]

[2] = system: SK-N-SH cells; experiment: CCK-8 cell viability, individual and combined exposure (CI/DRI analysis), SK-N-SH cells; assay type: cell-based, human; conditions: for IC50: Homo sapiens
Procedure: as §1, §2, §3, §4, §5, §6, §7, §8, §9

[3] = system: SK-N-SH cells; conditions: 24 h; cited from earlier work
[4] = system: Caco-2 cells; conditions: cited from earlier work
[5] = HK-2 cells, 24 h, CCK-8, mean ± SEM, n = 6, read-out: IC50
[6] = HK-2 cells, 48 h, CCK-8, mean ± SEM, n = 6, read-out: IC50
[7] = SK-N-SH cells, 24 h, CCK-8, mean ± SEM, n = 6, read-out: IC50
[8] = SK-N-SH cells, 48 h, CCK-8, mean ± SEM, n = 6, read-out: IC50
[9] = SK-N-SH, 24 h, in PAT+OTA group

SMILES	DRI (dose reduction index) ([1]; HK-2, 24 h)	IC50 [1, 5] [µg/mL]	IC50 [1, 6] [µg/mL]	IC50 [2, 7] [µg/mL]	IC50 [2, 8] [µg/mL]	IC50 [3] [mM]	IC50 ([1]; HK-2, 24 h) [µg/mL]	IC50 ([1]; HK-2, 48 h) [µg/mL]	IC50 ([2]; SK-N-SH, 24 h) [µg/mL]	IC50 ([2]; SK-N-SH, 48 h) [µg/mL]	DRI (dose reduction index) [2, 9]	DRI (dose reduction index) ([2]; SK-N-SH, 48 h, in OTA+ACM group, Fa > 0.5)	IC50 [4] [µM]
C/C(=N\C#N)N(C)Cc1ccc(Cl)nc1 [ACM, acetamiprid]	greater than 1	1160 ± 38.7	900.2 ± 4.1	700 ± 34.4	550 ± 31.6	~10.6	–	–	–	–	–	–	–
C[C@@H]1Cc2c(Cl)cc(C(=O)N[C@@H](Cc3ccccc3)C(=O)O)c(O)c2C(=O)O1 [OTA, ochratoxin A]	–	–	–	–	–	–	2.5 ± 0.049	1 ± 0.021	7 ± 0.357	4.5 ± 0.415	greater than 1	greater than 1	145
O=C1C=C2C(=CCOC2O)O1 (centres unmarked) [PAT, Patulin]	greater than 1	0.5 ± 0.005	0.4 ± 0.006	0.5 ± 0.024	0.25 ± 0.001	–	–	–	–	–	greater than 1	–	16
